Data as given in PMC11187126, “Structure and dynamics of the pyroglutamylated RF-amide peptide QRFP receptor GPR103” (Nature Communications, 2024).
Where two headings read alike, the source gives them in different places. No end group written: not given here.

Target: T1, GPR103 ΔCterm (Homo sapiens, UniProt Q96P65)
T1 construct: we truncated the C-terminal residues after G366 of human GPR103; expressed in transfected cells; host or cells: HEK293 cells, pCAGGS vector
T1 sequence (Q96P65 1-366): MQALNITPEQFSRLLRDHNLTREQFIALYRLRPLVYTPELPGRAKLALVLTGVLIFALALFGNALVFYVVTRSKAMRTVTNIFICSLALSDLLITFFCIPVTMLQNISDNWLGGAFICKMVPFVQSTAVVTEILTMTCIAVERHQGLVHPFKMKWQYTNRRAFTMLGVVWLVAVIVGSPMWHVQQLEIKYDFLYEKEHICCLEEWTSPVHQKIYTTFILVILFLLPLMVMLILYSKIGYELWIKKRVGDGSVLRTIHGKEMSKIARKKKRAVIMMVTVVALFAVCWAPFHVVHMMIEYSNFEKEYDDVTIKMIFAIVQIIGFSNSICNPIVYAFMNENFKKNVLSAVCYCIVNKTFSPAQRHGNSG
Test: TGFα shedding assay; Exp. level WT (1:20)
Format: cell-based

- Emax (Exp. #1): 83.85 % WT
- Emax (Exp. #2): 86.40 % WT
- Emax (Exp. #3): 89.99 % WT
- Emax (mean, read-out: Emax): 86.8%
- EC50 (n = 3): 11.2 nM
Substance: TSGPLGNLAEELNGYSRKKGGFSFRF-NH2 [QRFP26]
